Assay results: article PMC11497264 (Chembiochem, 2024)
pKd: −log10 of the molar value. Read-outs that look alike come from different tables or passages of the source. Bridge positions count the residues as written; N and C are the ends. Peptide text beside a SMILES is read from it.

Biological target: T1, human GRP78 (Homo sapiens, UniProt P11021)
T1 construct: The full length human GRP78 protein recombinantly produced in Escherichia coli; 6xHis (inferred from capture on nickel-NTA chip); purchased Abcam (Cambridge, UK); host or cells: Escherichia coli
T1 sequence (P11021 19-654): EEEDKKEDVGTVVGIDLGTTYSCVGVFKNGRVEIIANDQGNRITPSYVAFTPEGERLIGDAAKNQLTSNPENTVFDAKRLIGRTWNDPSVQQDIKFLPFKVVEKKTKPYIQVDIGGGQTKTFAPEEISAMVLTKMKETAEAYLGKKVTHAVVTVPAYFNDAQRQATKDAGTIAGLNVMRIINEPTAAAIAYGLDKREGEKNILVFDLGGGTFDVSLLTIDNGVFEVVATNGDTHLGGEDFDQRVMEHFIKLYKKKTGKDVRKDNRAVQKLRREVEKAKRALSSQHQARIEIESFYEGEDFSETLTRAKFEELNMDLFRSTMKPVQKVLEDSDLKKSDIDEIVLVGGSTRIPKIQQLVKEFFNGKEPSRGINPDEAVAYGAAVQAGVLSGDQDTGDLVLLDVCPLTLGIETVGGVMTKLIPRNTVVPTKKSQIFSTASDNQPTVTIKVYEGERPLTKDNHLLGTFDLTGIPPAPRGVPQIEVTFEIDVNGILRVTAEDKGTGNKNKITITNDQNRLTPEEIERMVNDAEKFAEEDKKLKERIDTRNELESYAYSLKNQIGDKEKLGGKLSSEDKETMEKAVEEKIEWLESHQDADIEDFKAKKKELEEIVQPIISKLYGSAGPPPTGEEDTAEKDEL
Experiment: biochemical
Assay type: binding

SMILES: CC(C)C[C@@H]1NC(=O)[C@H](C)NC(=O)[C@H](C(C)C)NC(=O)[C@H]([C@@H](C)O)NC(=O)[C@@H](N)CSSC[C@@H](C(N)=O)NC(=O)[C@H](C(C)C)NC(=O)[C@H](CCCNC(=N)N)NC(=O)[C@H](C(C)C)NC(=O)[C@H](Cc2ccc(O)cc2)NC(=O)CNC(=O)CNC(=O)[C@@H]2CCCN2C1=O [Pep42, reference compound] (H-CTVALPGGYVRVC-NH2; disulfide 1-13)
- pKd (affinity of binding to GRP78): 2.47
- kon (read-out: Ka1 (association rate constant 1)): 160 M⁻¹ s⁻¹
- koff (read-out: Kd1 (dissociation rate constant 1)): 0.678 s⁻¹
- koff (read-out: Kd2 (dissociation rate constant 2)): 0.0116 s⁻¹
